Laboratory results: PubChem BioAssay AID248 (DTP/NCI, 2004)
“And” between values parts separate entries of the source, which are not always exact repeats. Equal entries are not always repeated. Toxic doses and inconclusive results are not listed.

Test system: L1210 leukemia ip in BDF1 mice, survival T/C
Assay: NCI In Vivo Anticancer Drug Screen. Data for tumor model L1210 Leukemia (intraperitoneal) in B6D2F1 (BDF1) mice
Conditions: endpoint: mean survival time, higher = longer survival
Outline: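 Mice bearing the transplanted tumor received compound or vehicle. Survival of the treated group was divided by that of the vehicle-treated control group to give the ratio.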

[1] = dose: 100.0 mg/kg/injection, schedule: Q04DX003 (ip), vehicle: Klucel (hydroxypropylcellulose) (HPC)
[2] = dose: 200.0 mg/kg/injection, schedule: Q04DX003 (ip), vehicle: Klucel (hydroxypropylcellulose) (HPC)
[3] = dose: 400.0 mg/kg/injection, schedule: Q04DX003 (ip), vehicle: Klucel (hydroxypropylcellulose) (HPC)
[4] = dose: 25.0 mg/kg/injection, schedule: Q01DX009 (ip), vehicle: Klucel (hydroxypropylcellulose) (HPC)
[5] = dose: 50.0 mg/kg/injection, schedule: Q01DX009 (ip), vehicle: Klucel (hydroxypropylcellulose) (HPC)
[6] = dose: 100.0 mg/kg/injection, schedule: Q01DX009 (ip), vehicle: Klucel (hydroxypropylcellulose) (HPC)
[7] = dose: 100.0 mg/kg/injection, schedule: Q01DX009 (ip), vehicle: saline with Tween-80
[8] = dose: 200.0 mg/kg/injection, schedule: Q01DX009 (ip), vehicle: saline with Tween-80
[9] = dose: 400.0 mg/kg/injection, schedule: Q01DX009 (ip), vehicle: saline with Tween-80
[10] = dose: 100.0 mg/kg/injection, schedule: Q01DX001 (ip), vehicle: Klucel (hydroxypropylcellulose) (HPC)
[11] = dose: 200.0 mg/kg/injection, schedule: Q01DX001 (ip), vehicle: Klucel (hydroxypropylcellulose) (HPC)
[12] = dose: 400.0 mg/kg/injection, schedule: Q01DX001 (ip), vehicle: Klucel (hydroxypropylcellulose) (HPC)
[13] = dose: 100.0 mg/kg/injection, schedule: Q04DX002 (ip), vehicle: Klucel (hydroxypropylcellulose) (HPC)
[14] = dose: 200.0 mg/kg/injection, schedule: Q01DX009 (ip), vehicle: Klucel (hydroxypropylcellulose) (HPC)

SMILES: O=C(CCCC(=O)N/N=C/C1CC=CCC1)N/N=C\C1CC=CCC1 (stereo not given)
- T/C (dose: 50.0 mg/kg/injection, schedule: Q01DX001 (ip), vehicle: other): 90 % of control
- T/C (dose: 100.0 mg/kg/injection, schedule: Q01DX001 (ip), vehicle: other): 90 % of control
- T/C (dose: 400.0 mg/kg/injection, schedule: Q01DX001 (ip), vehicle: other): 98 % of control

SMILES: CCCCCC/C=C/[N+]([O-])=NC(COC)C(C)O (stereo not given)
- T/C (dose: 5.3 mg/kg/injection, schedule: Q01DX Z (ip), vehicle: carboxymethylcellulose (CMC)): 103 % of control
- T/C (dose: 8.0 mg/kg/injection, schedule: Q01DX Z (ip), vehicle: carboxymethylcellulose (CMC)): 106 % of control
- T/C (dose: 12.0 mg/kg/injection, schedule: Q01DX Z (ip), vehicle: carboxymethylcellulose (CMC)): 101 % of control
- T/C (dose: 18.0 mg/kg/injection, schedule: Q01DX Z (ip), vehicle: carboxymethylcellulose (CMC)): 95 % of control

SMILES: O=c1cc(Nc2cccc(Cl)c2)[nH]c(=O)[nH]1
- T/C (dose: 35.0 mg/kg/injection, schedule: Q01DX001 (ip), vehicle: Klucel (hydroxypropylcellulose) (HPC)): 92 % of control
- T/C (dose: 70.0 mg/kg/injection, schedule: Q01DX001 (ip), vehicle: Klucel (hydroxypropylcellulose) (HPC)): 92 % of control
- T/C (dose: 140.0 mg/kg/injection, schedule: Q01DX001 (ip), vehicle: Klucel (hydroxypropylcellulose) (HPC)): 98 % of control

SMILES: O=C(NC(Cc1cn(Cc2ccccc2)cn1)C(=O)O)OCc1ccccc1 (stereo not given)
- T/C [1]: 104 % of control
- T/C [2]: 104 % of control
- T/C [3]: 97 % of control

SMILES: NNC(=O)c1ccc(Cl)cc1Cl
- T/C (dose: 6.25 mg/kg/injection, schedule: Q04DX003 (ip), vehicle: saline sonified): 97 % of control
- T/C (dose: 12.5 mg/kg/injection, schedule: Q01DX009 (ip), vehicle: Klucel (hydroxypropylcellulose) (HPC)): 96 % of control
- T/C (dose: 12.5 mg/kg/injection, schedule: Q04DX003 (ip), vehicle: saline sonified): 101 % of control
- T/C [4]: 106 % of control
- T/C (dose: 25.0 mg/kg/injection, schedule: Q04DX003 (ip), vehicle: saline sonified): 95 % of control

SMILES: c1nc2c([nH]1)CCCCC2
- T/C (dose: 12.5 mg/kg/injection, schedule: Q01DX001 (ip), vehicle: saline with Tween-80): 100 % of control
- T/C (dose: 25.0 mg/kg/injection, schedule: Q01DX001 (ip), vehicle: saline with Tween-80): 97 % of control
- T/C (dose: 25.0 mg/kg/injection, schedule: Q01DX009 (ip), vehicle: other): 104 % of control and 106 % of control
- T/C (dose: 25.0 mg/kg/injection, schedule: Q04DX002 (ip), vehicle: other): 99 % of control and 110 % of control
- T/C (dose: 50.0 mg/kg/injection, schedule: Q01DX001 (ip), vehicle: saline with Tween-80): 100 % of control
- T/C (dose: 50.0 mg/kg/injection, schedule: Q01DX009 (ip), vehicle: other): 101 % of control and 88 % of control
- T/C (dose: 50.0 mg/kg/injection, schedule: Q04DX002 (ip), vehicle: other): 105 % of control and 113 % of control
- T/C (dose: 100.0 mg/kg/injection, schedule: Q04DX002 (ip), vehicle: other): 100 % of control and 103 % of control

SMILES: O=C(NCCCl)C(Cl)(Cl)Cl
- T/C [1]: 98 % of control
- T/C [2]: 97 % of control
- T/C [3]: 106 % of control

SMILES: COc1cccc(O)c1/C=C/[N+](=O)[O-]
- T/C [5]: 104 % of control
- T/C [6]: 102 % of control

SMILES: C=CCn1c(-c2ccc(N(C)C)cc2)nc2c(Cl)ncnc21
- T/C (dose: 5.0 mg/kg/injection, schedule: Q01DX009 (ip), vehicle: steriod suspending solution): 97 % of control
- T/C (dose: 9.0 mg/kg/injection, schedule: Q01DX009 (ip), vehicle: steriod suspending solution): 98 % of control
- T/C (dose: 14.0 mg/kg/injection, schedule: Q01DX009 (ip), vehicle: steriod suspending solution): 102 % of control
- T/C (dose: 24.0 mg/kg/injection, schedule: Q01DX009 (ip), vehicle: steriod suspending solution): 95 % of control

SMILES: O=[N+]([O-])c1ccc(N/N=C(\CBr)c2ccccc2)c([N+](=O)[O-])c1
- T/C [7]: 94 % of control
- T/C [8]: 95 % of control
- T/C [9]: 94 % of control

SMILES: COc1c(NC(=O)C(Br)C(Br)C(=O)O)cccc1[N+](=O)[O-] (stereo not given)
- T/C [7]: 100 % of control
- T/C [8]: 95 % of control
- T/C [9]: 95 % of control

SMILES: Cc1ncc(CO)c(CO)c1O
- T/C (dose: 100.0 mg/kg/injection, schedule: Q04DX003 (ip), vehicle: saline): 101 % of control
- T/C (dose: 200.0 mg/kg/injection, schedule: Q04DX003 (ip), vehicle: saline): 100 % of control
- T/C (dose: 400.0 mg/kg/injection, schedule: Q04DX003 (ip), vehicle: saline): 96 % of control

SMILES: Cc1o[nH]c(=O)c1C
- T/C (dose: 100.0 mg/kg/injection, schedule: Q04DX003 (ip), vehicle: saline with Tween-80): 103 % of control
- T/C (dose: 200.0 mg/kg/injection, schedule: Q04DX003 (ip), vehicle: saline with Tween-80): 94 % of control
- T/C (dose: 400.0 mg/kg/injection, schedule: Q04DX003 (ip), vehicle: saline with Tween-80): 103 % of control

SMILES: CC(C)(C)C(=O)[CH-]C(=O)C(C)(C)C.CC(C)(C)C(=O)[CH-]C(=O)C(C)(C)C.CC(C)(C)C(=O)[CH-]C(=O)C(C)(C)C.CS(C)=O.[Er+3]
- T/C [10]: 98 % of control
- T/C [1]: 103 % of control
- T/C [11]: 101 % of control
- T/C [2]: 98 % of control
- T/C [12]: 96 % of control
- T/C [3]: 103 % of control

SMILES: Cc1ccc(SC(=O)CC(=O)Sc2ccc(C)cc2)cc1
- T/C (dose: 50.0 mg/kg/injection, schedule: Q01DX009 (ip), vehicle: saline with Tween-80): 91 % of control
- T/C [7]: 94 % of control
- T/C [8]: 97 % of control

SMILES: COc1ccc(Nc2ccnc3cc(Cl)ccc23)cc1CN(CCCl)C(C)CCl (stereo not given)
- T/C (dose: 25.0 mg/kg/injection, schedule: Q01DX001 (ip), vehicle: carboxymethylcellulose (CMC)): 113 % of control
- T/C (dose: 50.0 mg/kg/injection, schedule: Q01DX001 (ip), vehicle: carboxymethylcellulose (CMC)): 107 % of control
- T/C (dose: 100.0 mg/kg/injection, schedule: Q01DX001 (ip), vehicle: carboxymethylcellulose (CMC)): 103 % of control

SMILES: O=C(O)C1C2OC3C(OC(=O)C31)C2Cl (stereo not given)
- T/C [13]: 95 % of control
- T/C (dose: 200.0 mg/kg/injection, schedule: Q04DX002 (ip), vehicle: Klucel (hydroxypropylcellulose) (HPC)): 92 % of control
- T/C (dose: 400.0 mg/kg/injection, schedule: Q04DX002 (ip), vehicle: Klucel (hydroxypropylcellulose) (HPC)): 92 % of control

SMILES: CC(O)CCc1ccccc1 (stereo not given)
- T/C [7]: 100 % of control
- T/C [8]: 89 % of control
- T/C [9]: 88 % of control

SMILES: CCCC(C)C(=O)Nc1cccc(OC(=O)NC(C)(C)C)c1 (stereo not given)
- T/C [7]: 92 % of control
- T/C [8]: 89 % of control
- T/C [9]: 87 % of control

SMILES: COc1cc(C=Nc2ccc3c(c2)ncn3C)ccc1N(CCCl)CCCl
- T/C [13]: 153 % of control

SMILES: [N-]=[N+]=N/C(=C\c1ccccc1)C(=O)c1ccccc1
- T/C [10]: 94 % of control
- T/C (dose: 100.0 mg/kg/injection, schedule: Q04DX003 (ip), vehicle: other): 100 % of control
- T/C [11]: 98 % of control
- T/C (dose: 200.0 mg/kg/injection, schedule: Q04DX003 (ip), vehicle: other): 98 % of control
- T/C [12]: 94 % of control
- T/C (dose: 400.0 mg/kg/injection, schedule: Q04DX003 (ip), vehicle: other): 91 % of control

SMILES: CC1NC(=O)COC1c1ccccc1 (stereo not given)
- T/C [4]: 101 % of control
- T/C [5]: 95 % of control
- T/C [6]: 101 % of control
- T/C [14]: 96 % of control

SMILES: Cc1cc(N(c2c(Cl)c(Cl)c(NS(=O)(=O)c3ccccc3)c(Cl)c2Cl)S(=O)(=O)c2ccccc2)cc(C)c1N
- T/C [10]: 98 % of control
- T/C [6]: 100 % of control
- T/C [11]: 95 % of control
- T/C [14]: 95 % of control
- T/C [12]: 90 % of control
- T/C (dose: 400.0 mg/kg/injection, schedule: Q01DX009 (ip), vehicle: Klucel (hydroxypropylcellulose) (HPC)): 94 % of control
